Experimental data from patent US20250346575A1, “ISOINDOLINONE DERIVATIVE HAVING GLUTARIMIDE MOTHER NUCLEUS, AND USE THEREOF” (KOREA RESEARCH INSTITUTE OF CHEMICAL TECHNOLOGY, priority 2021, published 2025).

How the values were obtained:
[1] = system: NCI-H1155 (lung cancer cells); test: CytoX cell viability assay, NCI-H1155; type: cell-based; details: for viability at 0.01 µM / viability at 0.5 µM: Homo sapiens, NCI-H1155; for cytotoxic activity against cancer cells, H1155 cells (in words): (6+6) bicyclic heteroaryl compared to (6+5) bicyclic heteroaryl (Compounds 56-58 and 62-70)
Protocol: The survival rate of NCI-H1155 (lung cancer cells) was measured using the CytoX cell viability assay kit (LPS solution, #CYT3000). NCI-H1155 cells were inoculated into 12-well plates. Afterwards, the cells were treated with each compound of the present disclosure and a comparative substance (CC-90009) at concentrations of 10 nM and 500 nM for 72 hours. Then, CytoX solution was added to the cells, incubated for one hour, and the absorbance of each well was read at 450 nm using a microplate reader to calculate the % viability, and the measurements are summarized in Table 2

Cancer cells (KG-1) = test: Cytotoxicity assay, WST-1, KG-1; type: cell-based; details: Homo sapiens; KG-1 cells, 72 hours, WST-1
Protocol: To evaluate the effect of the compounds of the present disclosure on cancer cells, a cytotoxicity assay was conducted as follows.
Cancer cells (KG-1) were seeded at a concentration of 10,000 cells per well into a 96-well plate. Then, the cells were treated with predetermined concentrations of compounds of the Examples and comparative substances (comparative compounds 1, 2, 3). After 72 hours, the cells were incubated with WST-1 reagent for one hour. Then, absorbance was measured at 450 nm using a spectramax spectrophotometer to assess the degree of cancer cell apoptosis. The IC50 (μM) values were calculated using the measured values with the GraphPad Prism program and the measurements are summarized in Table 1.

Row | Compound | viability at 0.01 µM ([1]; 10 nM, 72 hours) [%] | viability at 0.5 µM ([1]; 500 nM, 72 hours) [%] | also measured
1 | O=C1CCC(N2Cc3cc(CNC(=O)C(F)(F)c4ccc(Cl)cc4)ccc3C2=O)C(=O)N1 (stereo not drawn) [CC-90009, reference compound] | – | – | NCI-H1155 (% viability) at 10 nM ([1]; 10 nM, 72 hours): 85.0%; NCI-H1155 (% viability) at 500 nM ([1]; 500 nM, 72 hours): 23.5%
2 | O=C1CCC(N2Cc3cc(CNC(=O)c4cc5ccccc5cn4)ccc3C2=O)C(=O)N1 (stereo not drawn) [Comparative Compound 1, N-((2-(2,6-Dioxopiperidin-3-yl)-1-oxoisoindolin-5-yl)methyl)isoquinoline-3-carboxamide, reference compound] | – | – | IC50 (Cancer cells (KG-1)): 10 to 50 µM
3 | O=C1CCC(N2Cc3cc(CNC(=O)c4cnc5ccccc5n4)ccc3C2=O)C(=O)N1 (stereo not drawn) [Comparative Compound 2, N-((2-(2,6-Dioxopiperidin-3-yl)-1-oxoisoindolin-5-yl)methyl)quinoxaline-2-carboxamide, reference compound] | – | – | IC50 (Cancer cells (KG-1)): 10 to 50 µM
4 | O=C1CCC(N2Cc3cc(CNC(=O)c4cc5ccccc5o4)ccc3C2=O)C(=O)N1 (stereo not drawn) [Compound 56, N-((2-(2,6-Dioxopiperidin-3-yl)-1-oxoisoindolin-5-yl)methyl)benzofuran-2-carboxamide] | 29.8 | 5.94 | –
5 | COc1ccc2[nH]c(C(=O)NCc3ccc4c(c3)CN(C3CCC(=O)NC3=O)C4=O)cc2c1 (stereo not drawn) [Compound 57, N-((2-(2,6-Dioxopiperidin-3-yl)-1-oxoisoindolin-5-yl)methyl)-5-methoxy-1H-indole-2-carboxamide] | 83.8 | 21.2 | –
6 | O=C1CCC(N2Cc3cc(CNC(=O)c4cc5ccccc5s4)ccc3C2=O)C(=O)N1 (stereo not drawn) [Compound 58, N-((2-(2,6-Dioxopiperidin-3-yl)-1-oxoisoindolin-5-yl)methyl)benzo[b]thiophene-2-carboxamide] | 4.31 | 2.96 | –
7 | O=C1CCC(N2Cc3cc(CNC(=O)c4cnc5cc(Cl)ccc5c4O)ccc3C2=O)C(=O)N1 (stereo not drawn) [Compound 59, 7-chloro-N-((2-(2,6-dioxopiperidin-3-yl)-1-oxoisoindolin-5-yl)methyl)-4-hydroxyquinoline-3-carboxamide] | 102 | 40.1 | cytotoxic activity against cancer cells, H1155 cells (in words) [1]: less cytotoxic activity
8 | O=C1CCC(N2Cc3cc(CNC(=O)c4cc5ccccc5oc4=O)ccc3C2=O)C(=O)N1 (stereo not drawn) [Compound 60, N-((2-(2,6-Dioxopiperidin-3-yl)-1-oxoisoindolin-5-yl)methyl)-2-oxo-2H-cromene-3-carboxamide] | 82 | 22.3 | cytotoxic activity against cancer cells, H1155 cells (in words) [1]: less cytotoxic activity
9 | O=C1CCC(N2Cc3cc(CNC(=O)c4cnnc5ccccc45)ccc3C2=O)C(=O)N1 (stereo not drawn) [Compound 61, N-((2-(2,6-Dioxopiperidin-3-yl)-1-oxoisoindolin-5-yl)methyl)cinnoline-4-carboxamide] | 96.8 | 87.2 | cytotoxic activity against cancer cells, H1155 cells (in words) [1]: less cytotoxic activity
10 | Cc1c(C(=O)NCc2ccc3c(c2)CN(C2CCC(=O)NC2=O)C3=O)nn(CC(C)C)c1-c1ccc(Cl)cc1 (stereo not drawn) [Compound 62, 5-(4-Chlorophenyl)-N-((2-(2,6-dioxopiperidin-3-yl)-1-oxoisoindolin-5-yl)methyl)-1-isobutyl-4-methyl-1H-pyrazole-3-carboxamide] | 18.9 | 9.56 | –
11 | COc1ccc2sc(C(=O)NCc3ccc4c(c3)CN(C3CCC(=O)NC3=O)C4=O)cc2c1 (stereo not drawn) [Compound 65, N-((2-(2,6-Dioxopiperidin-3-yl)-1-oxoisoindolin-5-yl)methyl)-5-methoxybenzo[b]thiophene-2-carboxamide] | 31.7 | 23.4 | –
12 | Cc1ccc2cc(C(=O)NCc3ccc4c(c3)CN(C3CCC(=O)NC3=O)C4=O)sc2c1 (stereo not drawn) [Compound 66, N-((2-(2,6-Dioxopiperidin-3-yl)-1-oxoisoindolin-5-yl)methyl)-6-methylbenzo[b]thiophene-2-carboxamide] | 32.1 | 26.1 | –
13 | Cc1ccc2c(Cl)c(C(=O)NCc3ccc4c(c3)CN(C3CCC(=O)NC3=O)C4=O)sc2c1 (stereo not drawn) [Compound 67, 3-Chloro-N-((2-(2,6-dioxopiperidin-3-yl)-1-oxoisoindolin-5-yl)methyl)-6-methylbenzo[b]thiophene-2-carboxamide] | 26.1 | 24.4 | –
14 | COc1ccc2c(Cl)c(C(=O)NCc3ccc4c(c3)CN(C3CCC(=O)NC3=O)C4=O)sc2c1 (stereo not drawn) [Compound 68, 3-Chloro-N-((2-(2,6-dioxopiperidin-3-yl)-1-oxoisoindolin-5-yl)methyl)-6-methoxybenzo[b]thiophene-2-carboxamide] | 29.9 | 26.4 | –
15 | O=C1CCC(N2Cc3cc(CNC(=O)c4cc5cccc(C(F)(F)F)c5s4)ccc3C2=O)C(=O)N1 (stereo not drawn) [Compound 71, N-((2-(2,6-Dioxopiperidin-3-yl)-1-oxoisoindolin-5-yl)methyl)-7-(trifluoromethyl)benzo[b]thiophene-2-carboxamide] | 24.2 | 24.4 | –
16 | O=C1CCC(N2Cc3cc(CNC(=O)c4sc5cc(C(F)(F)F)ccc5c4Cl)ccc3C2=O)C(=O)N1 (stereo not drawn) [Compound 72, 3-chloro-N-((2-(2,6-dioxopiperidin-3-yl)-1-oxoisoindolin-5-yl)methyl)-6-(trifluoromethyl)benzo[b]thiophene-2-carboxamide] | 33 | 24.6 | –
17 | O=C1CCC(N2Cc3cc(CNC(=O)c4cc5cc(C(F)(F)F)ccc5s4)ccc3C2=O)C(=O)N1 (stereo not drawn) [Compound 73, N-((2-(2,6-Dioxopiperidin-3-yl)-1-oxoisoindolin-5-yl)methyl)-5-(trifluoromethyl)benzo[b]thiophene-2-carboxamide] | 40.4 | 26 | –
18 | COc1cccc2sc(C(=O)NCc3ccc4c(c3)CN(C3CCC(=O)NC3=O)C4=O)cc12 (stereo not drawn) [Compound 74, N-((2-(2,6-Dioxopiperidin-3-yl)-1-oxoisoindolin-5-yl)methyl)-4-methoxybenzo[b]thiophene-2-carboxamide] | 26.6 | 25.4 | –
19 | Cc1c(C(=O)NCc2ccc3c(c2)CN(C2CCC(=O)NC2=O)C3=O)sc2ccc(Cl)cc12 (stereo not drawn) [Compound 75, 5-Chloro-N-((2-(2,6-dioxopiperidin-3-yl)-1-oxoisoindolin-5-yl)methyl)-3-methylbenzo[b]thiophene-2-carboxamide] | 32.1 | 24.5 | –
20 | Cc1c(C(=O)NCc2ccc3c(c2)CN(C2CCC(=O)NC2=O)C3=O)sc2ccccc12 (stereo not drawn) [Compound 76, N-((2-(2,6-Dioxopiperidin-3-yl)-1-oxoisoindolin-5-yl)methyl)-3-methylbenzo[b]thiophene-2-carboxamide] | 28 | 26.3 | –
21 | Cc1c(C(=O)NCc2ccc3c(c2)CN(C2CCC(=O)NC2=O)C3=O)sc2cccc(Cl)c12 (stereo not drawn) [Compound 77, 4-Chloro-N-((2-(2,6-dioxopiperidin-3-yl)-1-oxoisoindolin-5-yl)methyl)-3-methylbenzo[b]thiophene-2-carboxamide] | 24 | 24 | –
22 | Cc1c(C(=O)NCc2ccc3c(c2)CN(C2CCC(=O)NC2=O)C3=O)sc2c(Cl)cccc12 (stereo not drawn) [Compound 78, 7-Chloro-N-((2-(2,6-dioxopiperidin-3-yl)-1-oxoisoindolin-5-yl)methyl)-3-methylbenzo[b]thiophene-2-carboxamide] | 15.7 | 15.6 | –
23 | Cc1c(C(=O)NCc2ccc3c(c2)CN(C2CCC(=O)NC2=O)C3=O)sc2cccc(F)c12 (stereo not drawn) [Compound 79, N-((2-(2,6-Dioxopiperidin-3-yl)-1-oxoisoindolin-5-yl)methyl)-4-fluoro-3-methylbenzo[b]thiophene-2-carboxamide] | 16.2 | 15.2 | –
24 | COc1cccc2cc(C(=O)NCc3ccc4c(c3)CN(C3CCC(=O)NC3=O)C4=O)oc12 (stereo not drawn) [Compound 82, N-((2-(2,6-Dioxopiperidin-3-yl)-1-oxoisoindolin-5-yl)methyl)-7-methoxybenzofuran-2-carboxamide] | 39 | 17.6 | –
25 | COc1ccc2cc(C(=O)NCc3ccc4c(c3)CN(C3CCC(=O)NC3=O)C4=O)oc2c1 (stereo not drawn) [Compound 83, N-((2-(2,6-Dioxopiperidin-3-yl)-1-oxoisoindolin-5-yl)methyl)-6-methoxybenzofuran-2-carboxamide] | 26.1 | 15.9 | –
26 | Cc1ccc2c(C)c(C(=O)NCc3ccc4c(c3)CN(C3CCC(=O)NC3=O)C4=O)oc2c1 (stereo not drawn) [Compound 84, N-((2-(2,6-Dioxopiperidin-3-yl)-1-oxoisoindolin-5-yl)methyl)-3,6-dimethylbenzofuran-2-carboxamide] | 28.9 | 18.2 | –
27 | Cc1c(C(=O)NCc2ccc3c(c2)CN(C2CCC(=O)NC2=O)C3=O)oc2ccc(Br)cc12 (stereo not drawn) [Compound 85, 5-bromo-N-((2-(2,6-dioxopiperidin-3-yl)-1-oxoisoindolin-5-yl)methyl)-3-methylbenzofuran-2-carboxamide] | 36.6 | 18.6 | –
28 | O=C1CCC(N2Cc3cc(CNC(=O)c4cc5c(ccc6ccccc65)o4)ccc3C2=O)C(=O)N1 (stereo not drawn) [Compound 86, N-((2-(2,6-Dioxopiperidin-3-yl)-1-oxoisoindolin-5-yl)methyl)naphtho[2,1-b]furan-2-carboxamide] | 14.7 | 14.7 | –
